# Key:
# Test in all cases: Kinase profiling
# Type in all cases: biochemical
# Conditions in all cases: mean n=2, read-out: % Activity with 10 µM RTx-303
# PDHK2(h) = biological target: T1, PDHK2(h) (Homo sapiens, UniProt Q15119)
# T1 construct: purchased Eurofins (KinaseProfiler)
# Experimental: (§1) Supplementary Fig. 8 Pharmacological profiling of RTx-303 against kinases.
# (§2) % activity of the indicated kinases is shown following incubation with 10 µM RTx-303 in vitro.
# (§3) Data represent mean (n = 2).
# VRK1(h) = biological target: T2, VRK1(h) (Homo sapiens, UniProt Q99986)
# T2 construct: purchased Eurofins (KinaseProfiler)
# Experimental: as §1, §2, §3
# CDK2/cyclinA(h) = biological target: T3, CDK2/cyclinA(h) (Homo sapiens, UniProt P24941)
# T3 construct: purchased Eurofins (KinaseProfiler)
# Experimental: as §1, §2, §3
# PKCγ(h) = biological target: T4, PKCγ(h) (Homo sapiens, UniProt P05129)
# T4 construct: purchased Eurofins (KinaseProfiler)
# Experimental: as §1, §2, §3
# MLK4(h) = biological target: T5, MLK4(h) (Homo sapiens, UniProt Q5TCX8)
# T5 construct: purchased Eurofins (KinaseProfiler)
# Experimental: as §1, §2, §3
# DNA-PK(h) = biological target: T6, DNA-PK(h) (Homo sapiens, UniProt P78527)
# T6 construct: purchased Eurofins (KinaseProfiler)
# Experimental: as §1, §2, §3
# CDK16/cyclinY(h) = biological target: T7, CDK16/cyclinY(h) (Homo sapiens, UniProt Q00536)
# T7 construct: purchased Eurofins (KinaseProfiler)
# Experimental: as §1, §2, §3
# TSSK2(h) = biological target: T8, TSSK2(h) (Homo sapiens, UniProt Q96PF2)
# T8 construct: purchased Eurofins (KinaseProfiler)
# T8 sequence (Q96PF2 whole entry): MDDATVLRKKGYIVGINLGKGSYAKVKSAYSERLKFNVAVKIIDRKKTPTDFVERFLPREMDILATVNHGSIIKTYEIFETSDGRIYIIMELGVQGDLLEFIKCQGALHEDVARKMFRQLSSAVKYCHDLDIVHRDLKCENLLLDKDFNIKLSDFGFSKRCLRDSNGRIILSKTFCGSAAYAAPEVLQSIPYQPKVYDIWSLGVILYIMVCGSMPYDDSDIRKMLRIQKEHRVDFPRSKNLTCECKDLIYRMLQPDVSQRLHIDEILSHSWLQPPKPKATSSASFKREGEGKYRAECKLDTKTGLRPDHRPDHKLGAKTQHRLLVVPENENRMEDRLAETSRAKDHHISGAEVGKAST
# Experimental: as §1, §2, §3
# eEF-2K(h) = biological target: T9, eEF-2K(h) (Homo sapiens, UniProt O00418)
# T9 construct: purchased Eurofins (KinaseProfiler)
# Experimental: as §1, §2, §3
# PKCα(h) = biological target: T10, PKCα(h) (Homo sapiens, UniProt P17252)
# T10 construct: purchased Eurofins (KinaseProfiler)
# Experimental: as §1, §2, §3
# CDK1/cyclinB(h) = biological target: T11, CDK1/cyclinB(h) (Homo sapiens, UniProt P06493)
# T11 construct: purchased Eurofins (KinaseProfiler)
# Experimental: as §1, §2, §3
# PASK(h) = biological target: T12, PASK(h) (Homo sapiens, UniProt Q96RG2)
# T12 construct: purchased Eurofins (KinaseProfiler)
# Experimental: as §1, §2, §3
# MAPKAP-K3(h) = biological target: T13, MAPKAP-K3(h) (Homo sapiens, UniProt Q16644)
# T13 construct: purchased Eurofins (KinaseProfiler)
# Experimental: as §1, §2, §3
# TSSK4(h) = biological target: T14, TSSK4(h) (Homo sapiens, UniProt Q6SA08)
# T14 construct: purchased Eurofins (KinaseProfiler)
# Experimental: as §1, §2, §3
# DYRK3(h) = biological target: T15, DYRK3(h) (Homo sapiens, UniProt O43781)
# T15 construct: purchased Eurofins (KinaseProfiler)
# Experimental: as §1, §2, §3
# CDK6/cyclinD3(h) = biological target: T16, CDK6/cyclinD3(h) (Homo sapiens, UniProt Q00534)
# T16 construct: purchased Eurofins (KinaseProfiler)
# T16 sequence (Q00534 whole entry): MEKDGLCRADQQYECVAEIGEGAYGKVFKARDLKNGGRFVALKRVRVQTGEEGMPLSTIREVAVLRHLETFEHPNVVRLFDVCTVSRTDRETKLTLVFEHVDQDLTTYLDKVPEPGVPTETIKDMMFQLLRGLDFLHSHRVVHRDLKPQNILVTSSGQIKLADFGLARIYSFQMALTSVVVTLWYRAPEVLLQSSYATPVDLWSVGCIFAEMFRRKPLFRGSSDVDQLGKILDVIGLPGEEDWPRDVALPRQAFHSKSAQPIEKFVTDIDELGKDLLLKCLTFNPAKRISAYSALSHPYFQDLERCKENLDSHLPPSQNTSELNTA
# T16 sequence (P30281 whole entry partner): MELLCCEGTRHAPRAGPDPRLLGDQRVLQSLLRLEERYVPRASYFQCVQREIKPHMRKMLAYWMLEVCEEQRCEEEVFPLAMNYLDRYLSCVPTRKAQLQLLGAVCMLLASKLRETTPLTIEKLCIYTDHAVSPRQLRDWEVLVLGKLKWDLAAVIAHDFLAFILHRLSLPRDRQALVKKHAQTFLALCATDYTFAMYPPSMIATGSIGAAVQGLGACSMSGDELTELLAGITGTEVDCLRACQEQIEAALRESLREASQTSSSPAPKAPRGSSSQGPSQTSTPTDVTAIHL
# Experimental: as §1, §2, §3
# PI3KC2a(h) = biological target: T17, PI3KC2a(h) (Homo sapiens, UniProt O00443)
# T17 construct: purchased Eurofins (KinaseProfiler)
# T17 sequence (O00443 whole entry): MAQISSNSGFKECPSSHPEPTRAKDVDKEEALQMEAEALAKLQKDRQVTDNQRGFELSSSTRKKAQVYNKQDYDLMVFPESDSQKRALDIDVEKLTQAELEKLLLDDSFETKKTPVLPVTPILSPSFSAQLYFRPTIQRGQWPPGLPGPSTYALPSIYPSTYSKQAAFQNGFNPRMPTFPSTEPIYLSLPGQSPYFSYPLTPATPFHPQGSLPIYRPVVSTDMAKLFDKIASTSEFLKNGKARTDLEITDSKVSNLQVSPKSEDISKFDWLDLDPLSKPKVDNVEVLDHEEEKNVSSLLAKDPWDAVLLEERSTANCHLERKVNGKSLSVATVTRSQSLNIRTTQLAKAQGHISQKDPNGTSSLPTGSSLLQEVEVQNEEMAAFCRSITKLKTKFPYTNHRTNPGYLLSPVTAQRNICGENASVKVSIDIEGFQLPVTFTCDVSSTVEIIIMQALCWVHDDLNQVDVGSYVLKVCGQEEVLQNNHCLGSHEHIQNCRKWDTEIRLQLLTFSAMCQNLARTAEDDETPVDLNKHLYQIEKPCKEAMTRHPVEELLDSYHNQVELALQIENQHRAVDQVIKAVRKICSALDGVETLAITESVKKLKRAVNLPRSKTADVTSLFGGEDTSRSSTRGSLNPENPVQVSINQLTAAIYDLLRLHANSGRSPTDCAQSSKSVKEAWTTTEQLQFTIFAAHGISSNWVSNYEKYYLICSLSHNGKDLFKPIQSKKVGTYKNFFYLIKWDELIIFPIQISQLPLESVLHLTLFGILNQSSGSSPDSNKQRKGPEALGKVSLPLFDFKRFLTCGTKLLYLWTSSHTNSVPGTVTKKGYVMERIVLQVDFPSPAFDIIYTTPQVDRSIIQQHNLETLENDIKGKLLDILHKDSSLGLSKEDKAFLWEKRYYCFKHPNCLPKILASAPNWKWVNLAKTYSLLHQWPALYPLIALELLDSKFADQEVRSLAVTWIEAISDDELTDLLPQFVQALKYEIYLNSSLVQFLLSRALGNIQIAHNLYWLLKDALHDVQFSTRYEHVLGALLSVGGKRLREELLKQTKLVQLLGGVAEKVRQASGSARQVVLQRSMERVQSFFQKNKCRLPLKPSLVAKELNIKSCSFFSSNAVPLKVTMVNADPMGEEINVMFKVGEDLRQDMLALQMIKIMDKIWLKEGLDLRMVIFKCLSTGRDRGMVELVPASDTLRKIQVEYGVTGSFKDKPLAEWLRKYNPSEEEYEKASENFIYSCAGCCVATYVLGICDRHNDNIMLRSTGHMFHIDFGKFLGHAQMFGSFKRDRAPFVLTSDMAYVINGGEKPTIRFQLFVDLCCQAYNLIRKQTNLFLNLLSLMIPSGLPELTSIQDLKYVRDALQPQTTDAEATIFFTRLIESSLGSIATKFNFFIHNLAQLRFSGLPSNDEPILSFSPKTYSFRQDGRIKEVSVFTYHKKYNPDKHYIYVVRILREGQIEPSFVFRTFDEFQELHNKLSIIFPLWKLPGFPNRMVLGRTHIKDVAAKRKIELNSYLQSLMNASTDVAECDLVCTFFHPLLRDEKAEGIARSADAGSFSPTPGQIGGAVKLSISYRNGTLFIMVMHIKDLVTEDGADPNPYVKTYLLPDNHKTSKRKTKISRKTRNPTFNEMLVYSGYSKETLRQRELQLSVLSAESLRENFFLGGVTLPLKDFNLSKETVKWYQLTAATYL
# Experimental: as §1, §2, §3
# MOK(h) = biological target: T18, MOK(h) (Homo sapiens, UniProt Q9UQ07)
# T18 construct: purchased Eurofins (KinaseProfiler)
# Experimental: as §1, §2, §3
# ATR/ATRIP(h) = biological target: T19, ATR/ATRIP(h) (Homo sapiens, UniProt Q13535)
# T19 construct: purchased Eurofins (KinaseProfiler)
# Experimental: as §1, §2, §3
# PIP4K2a(h) = biological target: T20, PIP4K2a(h) (Homo sapiens, UniProt P48426)
# T20 construct: purchased Eurofins (KinaseProfiler)
# Experimental: as §1, §2, §3
# CDK5/p25(h) = biological target: T21, CDK5/p25(h) (Homo sapiens, UniProt Q00535)
# T21 construct: purchased Eurofins (KinaseProfiler)
# Experimental: as §1, §2, §3
# TAF1L(h) = biological target: T22, TAF1L(h) (Homo sapiens, UniProt Q8IZX4)
# T22 construct: purchased Eurofins (KinaseProfiler)
# T22 sequence (Q8IZX4 whole entry): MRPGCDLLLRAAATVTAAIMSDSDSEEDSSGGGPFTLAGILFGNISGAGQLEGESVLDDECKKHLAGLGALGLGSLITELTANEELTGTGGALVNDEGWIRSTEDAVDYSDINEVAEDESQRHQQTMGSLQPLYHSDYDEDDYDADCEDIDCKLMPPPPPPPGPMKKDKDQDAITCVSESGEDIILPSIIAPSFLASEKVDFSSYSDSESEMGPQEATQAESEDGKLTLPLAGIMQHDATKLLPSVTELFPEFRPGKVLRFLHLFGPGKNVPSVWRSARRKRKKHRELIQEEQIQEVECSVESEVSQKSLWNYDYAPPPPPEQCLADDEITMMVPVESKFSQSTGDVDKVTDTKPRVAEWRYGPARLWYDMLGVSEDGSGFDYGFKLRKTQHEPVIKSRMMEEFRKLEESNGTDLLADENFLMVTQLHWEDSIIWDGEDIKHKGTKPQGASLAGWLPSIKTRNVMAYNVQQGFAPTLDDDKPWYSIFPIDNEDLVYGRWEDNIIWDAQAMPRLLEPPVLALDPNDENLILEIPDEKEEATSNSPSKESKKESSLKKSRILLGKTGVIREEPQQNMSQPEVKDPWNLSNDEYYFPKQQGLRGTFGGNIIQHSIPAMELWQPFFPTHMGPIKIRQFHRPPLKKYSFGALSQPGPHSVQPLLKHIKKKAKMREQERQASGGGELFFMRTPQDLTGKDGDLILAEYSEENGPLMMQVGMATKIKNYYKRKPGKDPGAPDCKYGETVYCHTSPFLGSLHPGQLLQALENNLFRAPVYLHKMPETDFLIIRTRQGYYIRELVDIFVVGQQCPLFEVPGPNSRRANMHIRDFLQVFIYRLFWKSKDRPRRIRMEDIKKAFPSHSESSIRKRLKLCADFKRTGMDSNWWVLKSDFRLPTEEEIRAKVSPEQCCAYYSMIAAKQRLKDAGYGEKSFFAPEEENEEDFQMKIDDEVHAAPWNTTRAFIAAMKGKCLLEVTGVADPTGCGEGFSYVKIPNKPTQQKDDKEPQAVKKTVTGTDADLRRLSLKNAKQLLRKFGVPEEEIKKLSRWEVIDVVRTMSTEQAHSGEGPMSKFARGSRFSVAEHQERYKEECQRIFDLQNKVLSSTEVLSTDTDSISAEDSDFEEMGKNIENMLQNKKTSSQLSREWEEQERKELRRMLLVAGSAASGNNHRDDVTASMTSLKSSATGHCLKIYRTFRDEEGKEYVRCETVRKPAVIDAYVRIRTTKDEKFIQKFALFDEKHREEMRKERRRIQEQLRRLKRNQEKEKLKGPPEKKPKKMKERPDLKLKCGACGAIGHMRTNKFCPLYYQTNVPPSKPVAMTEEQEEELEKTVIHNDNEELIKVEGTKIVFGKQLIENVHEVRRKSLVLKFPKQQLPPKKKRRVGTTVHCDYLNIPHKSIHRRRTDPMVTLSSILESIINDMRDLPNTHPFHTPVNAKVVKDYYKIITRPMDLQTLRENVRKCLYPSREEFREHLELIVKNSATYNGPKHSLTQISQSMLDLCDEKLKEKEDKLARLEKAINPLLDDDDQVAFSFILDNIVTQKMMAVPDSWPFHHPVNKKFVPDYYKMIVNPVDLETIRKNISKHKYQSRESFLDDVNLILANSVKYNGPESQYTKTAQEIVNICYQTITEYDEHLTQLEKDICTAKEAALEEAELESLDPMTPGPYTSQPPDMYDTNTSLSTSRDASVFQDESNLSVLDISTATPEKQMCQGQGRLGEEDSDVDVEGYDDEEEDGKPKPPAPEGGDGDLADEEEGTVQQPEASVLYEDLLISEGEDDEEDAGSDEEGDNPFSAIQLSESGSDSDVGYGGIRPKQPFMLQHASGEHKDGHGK
# Experimental: as §1, §2, §3
# GRK6(h) = biological target: T23, GRK6(h) (Homo sapiens, UniProt P43250)
# T23 construct: purchased Eurofins (KinaseProfiler)
# Experimental: as §1, §2, §3
# Cdc7/cyclinB1(h) = biological target: T24, Cdc7/cyclinB1(h) (Homo sapiens, UniProt O00311)
# T24 construct: purchased Eurofins (KinaseProfiler)
# Experimental: as §1, §2, §3
# CDK9/cyclin T1(h) = biological target: T25, CDK9/cyclin T1(h) (Homo sapiens, UniProt P50750)
# T25 construct: purchased Eurofins (KinaseProfiler)
# Experimental: as §1, §2, §3
# PDHK4(h) = biological target: T26, PDHK4(h) (Homo sapiens, UniProt Q16654)
# T26 construct: purchased Eurofins (KinaseProfiler)
# T26 sequence (Q16654 whole entry): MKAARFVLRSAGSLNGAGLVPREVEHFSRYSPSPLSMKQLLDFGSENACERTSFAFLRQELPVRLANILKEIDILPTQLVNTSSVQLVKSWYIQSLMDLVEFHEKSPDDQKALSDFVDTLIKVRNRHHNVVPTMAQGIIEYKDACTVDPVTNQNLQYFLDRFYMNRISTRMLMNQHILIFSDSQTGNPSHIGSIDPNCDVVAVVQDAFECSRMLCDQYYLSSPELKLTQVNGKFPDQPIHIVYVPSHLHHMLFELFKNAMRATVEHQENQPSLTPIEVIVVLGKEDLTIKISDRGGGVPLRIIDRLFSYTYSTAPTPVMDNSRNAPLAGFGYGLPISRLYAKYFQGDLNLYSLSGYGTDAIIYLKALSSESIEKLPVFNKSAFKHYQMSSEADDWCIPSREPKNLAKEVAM
# Experimental: as §1, §2, §3
# TRB2(h) = biological target: T27, TRB2(h) (Homo sapiens, UniProt Q92519)
# T27 construct: purchased Eurofins (KinaseProfiler)
# Experimental: as §1, §2, §3
# GRK5(h) = biological target: T28, GRK5(h) (Homo sapiens, UniProt P34947)
# T28 construct: purchased Eurofins (KinaseProfiler)
# Experimental: as §1, §2, §3
# CDK7/cyclinH/MAT1(h) = biological target: T29, CDK7/cyclinH/MAT1(h) (Homo sapiens, UniProt P50613)
# T29 construct: purchased Eurofins (KinaseProfiler)
# Experimental: as §1, §2, §3
# CDKL4(h) = biological target: T30, CDKL4(h) (Homo sapiens, UniProt Q5MAI5)
# T30 construct: purchased Eurofins (KinaseProfiler)
# Experimental: as §1, §2, §3
# A-Raf(h) = biological target: T31, A-Raf(h) (Homo sapiens, UniProt P10398)
# T31 construct: purchased Eurofins (KinaseProfiler)
# Experimental: as §1, §2, §3
# TTBK2(h) = biological target: T32, TTBK2(h) (Homo sapiens, UniProt Q6IQ55)
# T32 construct: purchased Eurofins (KinaseProfiler)
# Experimental: as §1, §2, §3
# CDK17/cyclinY(h) = biological target: T33, CDK17/cyclinY(h) (Homo sapiens, UniProt Q00537)
# T33 construct: purchased Eurofins (KinaseProfiler)
# Experimental: as §1, §2, §3
# PEK(h) = biological target: T34, PEK(h) (Homo sapiens, UniProt Q9NZJ5)
# T34 construct: purchased Eurofins (KinaseProfiler)
# Experimental: as §1, §2, §3
# PKCβI(h) = biological target: T35, PKCβI(h) (Homo sapiens, UniProt P05771)
# T35 construct: purchased Eurofins (KinaseProfiler)
# Experimental: as §1, §2, §3
# ChaK1(h) = biological target: T36, ChaK1(h) (Homo sapiens, UniProt Q96QT4)
# T36 construct: purchased Eurofins (KinaseProfiler)
# Experimental: as §1, §2, §3
# ATM(h) = biological target: T37, ATM(h) (Homo sapiens, UniProt Q13315)
# T37 construct: purchased Eurofins (KinaseProfiler)
# Experimental: as §1, §2, §3
# TTBK1(h) = biological target: T38, TTBK1(h) (Homo sapiens, UniProt Q5TCY1)
# T38 construct: purchased Eurofins (KinaseProfiler)
# Experimental: as §1, §2, §3
# PKCζ(h) = biological target: T39, PKCζ(h) (Homo sapiens, UniProt Q05513)
# T39 construct: purchased Eurofins (KinaseProfiler)
# Experimental: as §1, §2, §3
# CDK18/cyclinY(h) = biological target: T40, CDK18/cyclinY(h) (Homo sapiens, UniProt Q07002)
# T40 construct: purchased Eurofins (KinaseProfiler)
# Experimental: as §1, §2, §3
# CDK14/cyclinY(h) = biological target: T41, CDK14/cyclinY(h) (Homo sapiens, UniProt O94921)
# T41 construct: purchased Eurofins (KinaseProfiler)
# Experimental: as §1, §2, §3
smiles,measurement,setting,value
[2H]C([2H])([2H])N(C(=O)Oc1c(N2CCN(C[C@H](O)CN(C)C)C2=O)cc(C(F)(F)F)cc1C(F)(F)F)c1ccc(F)cc1 [RTx-303],activity at 10 µM,PDHK2(h),98%
same,activity at 10 µM,VRK1(h),92%
same,activity at 10 µM,CDK2/cyclinA(h),100%
same,activity at 10 µM,PKCγ(h),111%
same,activity at 10 µM,MLK4(h),109%
same,activity at 10 µM,DNA-PK(h),94%
same,activity at 10 µM,CDK16/cyclinY(h),102%
same,activity at 10 µM,TSSK2(h),102%
same,activity at 10 µM,eEF-2K(h),94%
same,activity at 10 µM,PKCα(h),103%
same,activity at 10 µM,CDK1/cyclinB(h),105%
same,activity at 10 µM,PASK(h),75%
same,activity at 10 µM,MAPKAP-K3(h),98%
same,activity at 10 µM,TSSK4(h),117%
same,activity at 10 µM,DYRK3(h),113%
same,activity at 10 µM,CDK6/cyclinD3(h),101%
same,activity at 10 µM,PI3KC2a(h),79%
same,activity at 10 µM,MOK(h),100%
same,activity at 10 µM,ATR/ATRIP(h),77%
same,activity at 10 µM,PIP4K2a(h),96%
same,activity at 10 µM,CDK5/p25(h),104%
same,activity at 10 µM,TAF1L(h),95%
same,activity at 10 µM,GRK6(h),90%
same,activity at 10 µM,Cdc7/cyclinB1(h),92%
same,activity at 10 µM,CDK9/cyclin T1(h),119%
same,activity at 10 µM,PDHK4(h),93%
same,activity at 10 µM,TRB2(h),98%
same,activity at 10 µM,GRK5(h),103%
same,activity at 10 µM,CDK7/cyclinH/MAT1(h),109%
same,activity at 10 µM,CDKL4(h),99%
same,activity at 10 µM,A-Raf(h),105%
same,activity at 10 µM,TTBK2(h),99%
same,activity at 10 µM,CDK17/cyclinY(h),110%
same,activity at 10 µM,PEK(h),104%
same,activity at 10 µM,PKCβI(h),103%
same,activity at 10 µM,ChaK1(h),102%
same,activity at 10 µM,ATM(h),93%
same,activity at 10 µM,TTBK1(h),101%
same,activity at 10 µM,PKCζ(h),102%
same,activity at 10 µM,CDK18/cyclinY(h),89%
same,activity at 10 µM,CDK14/cyclinY(h),105%

# From paper PMC12621202, “RTx-303, an Orally Bioavailable Polθ Polymerase Inhibitor That Potentiates PARP Inhibitors in BRCA Mutant Tumors” (Journal of Medicinal Chemistry, 2025)
